Drawing on patent US20220225639A1, “IMMUNE-STIMULATING COMPOSITIONS FOR AQUACULTURE SPECIES” (MIREXUS BIOTECHNOLOGIES INC., priority 2019, published 2022), this text covers intracellular fluorescence for one substance.

The assay deals with rainbow trout gut cells (RT-gut). Nature of the assay: Uptake and intracellular stability of fluorescently labelled poly IC (fluorescent microscopy). The note with it: 1 ug/ml, 20 degree treatment, 4 hours. Type of assay: cell-based. As for the experimental part:
Per Example 7, low molecular weight poly:IC was labelled with a fluorescent dye, then left as “free” poly:IC or coupled with Cat-PhG (0.38) at a 1:1 (w/w) ratio. Free poly:IC or PhG coupled poly:IC was added to RT-gut cells at a concentration of 1 ug/ml and incubated at 4° C. or 20° C. for 4 hours. Cells were imaged via fluorescent microscopy, and average intracellular fluorescence intensity was measured from 5 randomly selected cells.
Low molecular weight poly IC was labelled with the Ulysis AlexaFluor 546 labelling kit (Invitrogen), then left as “free” poly IC or couple with cationic PhG (0.38) at a 1:1 (w/w) ratio. Free poly IC or PhG coupled poly IC was added to RT-gut cells at a concentration of 1 ug/ml and incubated at 4° C. or 20° C. for 4 hours. Cells were imaged via fluorescent microscopy, and average intracellular fluorescence intensity was measured from 5 randomly selected cells.

In the case of “polyinosinic:polycytidylic acid [free poly IC]”, the intracellular fluorescence result was “no fluorescence was detected”.
